Experimental data taken from patent US20080146516A1, “Novel C-Glycosides, uses thereof” (L 'OREAL SA, priority 2004, published 2008).

Test system: normal human dermal fibroblasts
Experiment: Synthesis of glycosaminoglycans (hyaluronic acid): incorporation of radioactivity into the matrix neosynthesized by fibroblast cultures
Assay type: cell-based
Settings: 72 hours incubation; for cpm (radioactivity incorporated into matrix GAGs): 35S-sulphate during final 24 hours; for %/control: relative to the control (100)
Procedure: The study was carried out by measuring the incorporation of radioactive glucosamine into the matrix neosynthesized by normal human dermal fibroblast cultures. The incorporation of radioactive glucosamine indicates specific neosynthesis of glycosaminoglycans via incorporation of the sulphated form of this glucosamine.
Normal human dermal fibroblasts were seeded in the conventional culture medium and were then preincubated for 24 hours. The culture medium was then replaced with the test compounds at concentrations of 0.3, 1 and 3 mM; or culture medium (control); or TGFβ at 10 ng/ml (quality control). The cells were incubated for 72 hours with the addition of ^35S-sulphate during the final 24 hours of culture. The GAGs in the matrix were extracted with a chaotropic buffer and then purified by ion exchange chromatography (adsorption of the anionic molecules onto Q-sepharose beads under high stringency conditions, followed by desorption of the weakly and moderately anionic molecules with urea). The radioactivity incorporated into the very […] molecules that remained on the support were counted by liquid scintillation.
The results are expressed as percentage relative to the control: […]

Row | Compound | cpm (radioactivity incorporated into matrix GAGs) (10 ng/ml) | %/control (10 ng/ml) | cpm (radioactivity incorporated into matrix GAGs) (0.3 mM) | %/control (0.3 mM) | cpm (radioactivity incorporated into matrix GAGs) (1 mM) | %/control (1 mM) | cpm (radioactivity incorporated into matrix GAGs) (3 mM) | %/control (3 mM)
1 | TGFβ [reference compound] | 9625 cpm | 192% | – | – | – | – | – | –
2 | C[C@H](O)C[C@@H]1OC[C@@H](O)[C@H](O)[C@H]1O [Example 1, C-β-D-xylopyranoside-2-(S)-hydroxypropane] | – | – | 16276 cpm | 325% | 30943 cpm | 618% | 40770 cpm | 814%
